What was measured:
Format in all cases: in vivo
Kochia (Kochia scoparia) [1] = experiment: Test A preemergence
How it was run: (§1)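 Seeded soil received test chemicals as a preemergence directed spray, and seedlings at one to two leaves, 2–10 cm tall, received them postemergence, in a non-phytotoxic, surfactant-containing solvent mixture. Pots were held in a greenhouse for approximately 10 d, then rated for injury from 0, no effect, to 100, complete control.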

[2] = test system: barnyardgrass (Echinochloa crus-galli); experiment: Test A preemergence
How it was run: as §1

[3] = test system: giant foxtail (Setaria faberii); experiment: Test A preemergence
How it was run: as §1

[4] = test system: pigweed (Amaranthus retroflexus); experiment: Test A preemergence
[5] = test system: ragweed (common ragweed, Ambrosia elatior); experiment: Test A preemergence
How it was run: as §1

[6] = test system: ryegrass, Italian (Italian ryegrass, Lolium multiflorum); experiment: Test A preemergence
How it was run: as §1

[7] = test system: Galium (catchweed bedstraw, Galium aparine); experiment: Test A postemergence
How it was run: as §1

Kochia (Kochia scoparia) [8] = experiment: Test A postemergence
How it was run: as §1

[9] = test system: barnyardgrass (Echinochloa crus-galli); experiment: Test A postemergence
How it was run: as §1

[10] = test system: blackgrass (Alopecurus myosuroides); experiment: Test A postemergence
How it was run: as §1

corn (Zea mays) = experiment: Test A postemergence
How it was run: as §1

[11] = test system: giant foxtail (Setaria faberii); experiment: Test A postemergence
How it was run: as §1

[12] = test system: pigweed (Amaranthus retroflexus); experiment: Test A postemergence
How it was run: as §1

[13] = test system: ragweed (common ragweed, Ambrosia elatior); experiment: Test A postemergence
How it was run: as §1

[14] = test system: ryegrass, Italian (Italian ryegrass, Lolium multiflorum); experiment: Test A postemergence
How it was run: as §1

[15] = test system: wheat (Triticum aestivum); experiment: Test A postemergence
How it was run: as §1

[16] = test system: barnyardgrass (Echinochloa crus-galli); experiment: Test B flooded paddy test; details: Flood, 250 g ai/ha; 0 to 100 scale where 0 is no effect and 100 is complete control; 13 to 15 d
How it was run: (§2)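 Evaluation by eye, against controls, occurred 13–15 d post-treatment in a greenhouse, using a 0 (no effect) to 100 (complete control) scale. Application was into the paddy water, 3 cm deep over the soil, on 2-leaf plants.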

[17] = test system: ducksalad (Heteranthera limosa); experiment: Test B flooded paddy test; details: Flood, 250 g ai/ha; 0 to 100 scale where 0 is no effect and 100 is complete control; 13 to 15 d
How it was run: as §2

rice (Oryra sativa) = experiment: Test B flooded paddy test; details: Flood, 250 g ai/ha; 0 to 100 scale where 0 is no effect and 100 is complete control; 13 to 15 d
How it was run: as §2

[18] = test system: sedge, umbrella (small-flower umbrella sedge, Cyperus difformis); experiment: Test B flooded paddy test; details: Flood, 250 g ai/ha; 0 to 100 scale where 0 is no effect and 100 is complete control; 13 to 15 d
How it was run: as §2

[19] = test system: barnyardgrass (Echinochloa crus-galli); experiment: Test C flooded paddy test; details: Flood, 0 is no effect, 100 is complete control
How it was run: (§3)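 Rice, small-flower umbrella sedge, ducksalad and barnyardgrass at the 2-leaf stage were flooded to 3 cm, and compound was applied into the paddy water. After 13 to 15 d in a greenhouse, plants were rated visually against controls on a 0 (no effect) to 100 (complete control) scale.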

[20] = test system: ducksalad (Heteranthera limosa); experiment: Test C flooded paddy test; details: Flood, 0 is no effect, 100 is complete control
How it was run: as §3

rice (Oryza sativa) = experiment: Test C flooded paddy test; details: Flood, 0 is no effect, 100 is complete control
How it was run: as §3

[21] = test system: sedge, umbrella (small-flower umbrella sedge, Cyperus difformis); experiment: Test C flooded paddy test; details: Flood, 0 is no effect, 100 is complete control
How it was run: as §3

[22] = 125 g ai/ha, Preemergence, visual injury after approximately 10 d, 0 to 100 scale where 0 is no effect and 100 is complete control
[23] = Preemergence, 500 g ai/ha, visual injury approx. 10 d
[24] = 125 g ai/ha, postemergence, visual rating after approx. 10 d, 0 to 100 scale (0 no effect, 100 complete control)
[25] = Postemergence, 500 g ai/ha, 0 to 100 scale where 0 is no effect and 100 is complete control
[26] = 500 g ai/ha, preemergence, 0 to 100 scale, 0 = no effect, 100 = complete control
[27] = 500 g ai/ha, postemergence, visual injury, 0 to 100 scale (0 no effect, 100 complete control), approx. 10 d

SMILES: CN1CC(c2ccc(F)c(C(F)(F)F)c2)C(C(=O)Nc2ccccc2F)C1=O (stereo not shown) [Compound 611]
- Plant response rating, Kochia (Kochia (Kochia scoparia) [1]; [22]): 40
- Kochia plant response rating (0 to 100 scale, 0 is no effect, 100 is complete control) (Kochia (Kochia scoparia) [1]; [23]): 60
- Plant response rating, Barnyardgrass [2, 22]: 90
- Barnyardgrass plant response rating (0 to 100 scale, 0 is no effect, 100 is complete control) [2, 23]: 90
- Plant response rating, Foxtail, Giant [3, 22]: 90
- Foxtail, Giant plant response rating (0 to 100 scale, 0 is no effect, 100 is complete control) [3, 23]: 90
- Plant response rating, Pigweed [4, 22]: 70
- Pigweed plant response rating (0 to 100 scale, 0 is no effect, 100 is complete control) [4, 23]: 80
- Plant response rating, Ragweed [5, 22]: 0
- Plant response rating, Ryegrass, Italian [6, 22]: 60
- Ryegrass, Italian plant response rating (0 to 100 scale, 0 is no effect, 100 is complete control) [6, 23]: 60
- Plant response rating, Galium [7, 24]: 50
- Plant response rating, Galium [7, 25]: 60
- Plant response rating, Kochia (Kochia (Kochia scoparia) [8]; [24]): 60
- Plant response rating, Kochia (Kochia (Kochia scoparia) [8]; [25]): 70
- Plant response rating, Barnyardgrass [9, 24]: 90
- Plant response rating, Barnyardgrass [9, 25]: 90
- Plant response rating, Blackgrass [10, 24]: 50
- Plant response rating, Blackgrass [10, 25]: 70
- Plant response rating, Corn (corn (Zea mays); [24]): 50
- Plant response rating, Corn (corn (Zea mays); [25]): 70
- Plant response rating, Foxtail, Giant [11, 24]: 90
- Plant response rating, Foxtail, Giant [11, 25]: 90
- Plant response rating, Pigweed [12, 24]: 20
- Plant response rating, Pigweed [12, 25]: 30
- Plant response rating, Ragweed [13, 24]: 0
- Plant response rating, Ragweed [13, 25]: 30
- Plant response rating, Ryegrass, Italian [14, 24]: 40
- Plant response rating, Ryegrass, Italian [14, 25]: 70
- Plant response rating, Wheat [15, 24]: 40
- Plant response rating, Wheat [15, 25]: 60
- Plant response rating, Barnyardgrass [16]: 85
- Plant response rating, Ducksalad [17]: 100
- Plant response rating, Rice (rice (Oryra sativa)): 40
- Plant response rating, Sedge, Umbrella [18]: 0
- Plant response rating (scale of 0 to 100), Barnyardgrass ([19]; 31 g ai/ha): 0
- Plant response rating (scale of 0 to 100), Barnyardgrass ([19]; 62 g ai/ha): 0
- Plant response rating (scale of 0 to 100), Barnyardgrass ([19]; 125 g ai/ha): 60
- Plant response rating (scale of 0 to 100), Barnyardgrass ([19]; 250 g ai/ha): 75
- Plant response rating (scale of 0 to 100), Ducksalad ([20]; 31 g ai/ha): 0
- Plant response rating (scale of 0 to 100), Ducksalad ([20]; 62 g ai/ha): 0
- Plant response rating (scale of 0 to 100), Ducksalad ([20]; 125 g ai/ha): 80
- Plant response rating (scale of 0 to 100), Ducksalad ([20]; 250 g ai/ha): 95
- Plant response rating (scale of 0 to 100), Rice (rice (Oryza sativa); 31 g ai/ha): 0
- Plant response rating (scale of 0 to 100), Rice (rice (Oryza sativa); 62 g ai/ha): 0
- Plant response rating (scale of 0 to 100), Rice (rice (Oryza sativa); 125 g ai/ha): 0
- Plant response rating (scale of 0 to 100), Rice (rice (Oryza sativa); 250 g ai/ha): 15
- Plant response rating (scale of 0 to 100), Sedge, Umbrella ([21]; 31 g ai/ha): 0
- Plant response rating (scale of 0 to 100), Sedge, Umbrella ([21]; 62 g ai/ha): 0
- Plant response rating (scale of 0 to 100), Sedge, Umbrella ([21]; 125 g ai/ha): 0
- Plant response rating (scale of 0 to 100), Sedge, Umbrella ([21]; 250 g ai/ha): 0

SMILES: CN1CC(c2cccc(F)c2)C(C(=O)Nc2ccc(F)cc2F)C1=O (stereo not shown) [Compound 633]
- Plant response rating, Kochia (Kochia (Kochia scoparia) [1]; [22]): 30
- Plant response rating, Kochia (Kochia (Kochia scoparia) [1]; [26]): 50
- Plant response rating, Barnyardgrass [2, 22]: 90
- Plant response rating, Barnyardgrass [2, 26]: 90
- Plant response rating, Foxtail, Giant [3, 22]: 90
- Plant response rating, Foxtail, Giant [3, 26]: 90
- Plant response rating, Pigweed [4, 22]: 0
- Plant response rating, Pigweed [4, 26]: 50
- Plant response rating, Ragweed [5, 22]: 0
- Plant response rating, Ragweed [5, 26]: 50
- Plant response rating, Ryegrass, Italian [6, 22]: 30
- Plant response rating, Ryegrass, Italian [6, 26]: 60
- Plant response rating, Galium [7, 24]: 0
- Plant response rating, Galium [7, 27]: 50
- Plant response rating, Kochia (Kochia (Kochia scoparia) [8]; [24]): 40
- Plant response rating, Kochia (Kochia (Kochia scoparia) [8]; [27]): 60
- Plant response rating, Barnyardgrass [9, 24]: 90
- Plant response rating, Barnyardgrass [9, 25]: 90
- Plant response rating, Blackgrass [10, 24]: 20
- Plant response rating, Blackgrass [10, 25]: 50
- Plant response rating, Corn (corn (Zea mays); [24]): 0
- Plant response rating, Corn (corn (Zea mays); [25]): 60
- Plant response rating, Foxtail, Giant [11, 24]: 90
- Plant response rating, Foxtail, Giant [11, 27]: 90
- Plant response rating, Pigweed [12, 24]: 0
- Plant response rating, Pigweed [12, 27]: 0
- Plant response rating, Ragweed [13, 24]: 0
- Plant response rating, Ragweed [13, 27]: 0
- Plant response rating, Ryegrass, Italian [14, 24]: 0
- Plant response rating, Ryegrass, Italian [14, 27]: 50
- Plant response rating, Wheat [15, 24]: 0
- Plant response rating, Wheat [15, 27]: 40
- Plant response rating, Barnyardgrass [16]: 90
- Plant response rating, Ducksalad [17]: 100
- Plant response rating, Rice (rice (Oryra sativa)): 20
- Plant response rating, Sedge, Umbrella [18]: 0
- Plant response rating (scale of 0 to 100), Barnyardgrass ([19]; 31 g ai/ha): 10
- Plant response rating (scale of 0 to 100), Barnyardgrass ([19]; 62 g ai/ha): 40
- Plant response rating (scale of 0 to 100), Barnyardgrass ([19]; 125 g ai/ha): 55
- Plant response rating (scale of 0 to 100), Barnyardgrass ([19]; 250 g ai/ha): 70
- Plant response rating (scale of 0 to 100), Ducksalad ([20]; 31 g ai/ha): 0
- Plant response rating (scale of 0 to 100), Ducksalad ([20]; 62 g ai/ha): 60
- Plant response rating (scale of 0 to 100), Ducksalad ([20]; 125 g ai/ha): 75
- Plant response rating (scale of 0 to 100), Ducksalad ([20]; 250 g ai/ha): 100
- Plant response rating (scale of 0 to 100), Rice (rice (Oryza sativa); 31 g ai/ha): 0
- Plant response rating (scale of 0 to 100), Rice (rice (Oryza sativa); 62 g ai/ha): 0
- Plant response rating (scale of 0 to 100), Rice (rice (Oryza sativa); 125 g ai/ha): 0
- Plant response rating (scale of 0 to 100), Rice (rice (Oryza sativa); 250 g ai/ha): 10
- Plant response rating (scale of 0 to 100), Sedge, Umbrella ([21]; 31 g ai/ha): 0
- Plant response rating (scale of 0 to 100), Sedge, Umbrella ([21]; 62 g ai/ha): 0
- Plant response rating (scale of 0 to 100), Sedge, Umbrella ([21]; 125 g ai/ha): 0
- Plant response rating (scale of 0 to 100), Sedge, Umbrella ([21]; 250 g ai/ha): 0

Source: patent US12077503B2, “Substituted cyclic amides and their use as herbicides” (FMC CORPORATION, priority 2015, dated 2024)
